Test results as given in the supplement of paper PMC10307832.

Tests used:
Assay in all cases: relative viability (nuclei count vs DMSO), 5 days (fraction); higher = more cells survive
[1] = compound: CCC1=CN=CN=C1N2CCN(CC2)CC3=NC4=C(N3)C=C(C=C4)C(F)(F)F
How it was run: (§1)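 Lung cancer cell lines were seeded into 1536-well plates, kept overnight at 37 °C and pinned with five library-drug doses (not always all listed) spaced by √10. After 5 days, nuclei were Hoechst-stained, imaged at 4× and counted with MetaXpress. Viability is treated-well nuclei over vehicle-well nuclei, taken as a median across plates. Plates needed control CV below 25% and at least one doubling.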

[2] = compound: CCn1c(-c2nonc2N)nc2cnc(Oc3cccc(NC(=O)c4ccc(OCCN5CCOCC5)cc4)c3)cc21
How it was run: as §1

Mirin = compound: N=C1NC(=O)/C(=C/c2ccc(O)cc2)S1 [Mirin]
How it was run: as §1

Cell Line | relative viability ([1]; 0.04 µM) | relative viability ([1]; 0.1265 µM) | relative viability ([1]; 0.4 µM) | relative viability ([1]; 1.265 µM) | relative viability ([1]; 4 µM) | relative viability ([2]; 0.04 µM) | relative viability ([2]; 0.1265 µM) | relative viability ([2]; 0.4 µM) | relative viability ([2]; 1.265 µM) | relative viability ([2]; 4 µM) | relative viability (Mirin; 0.25 µM) | relative viability (Mirin; 0.7906 µM) | relative viability (Mirin; 2.5 µM) | relative viability (Mirin; 7.906 µM) | relative viability (Mirin; 25 µM)
LC-2-ad | 1 | 0.947 | 0.973 | 0.871 | 0.92 | 1.06 | 0.906 | 0.654 | 0.525 | 0.524 | 1.02 | 0.848 | 0.964 | 0.824 | 1.04
LCLC-97TM1 | 0.849 | 0.95 | 1 | 1 | 0.95 | 1.37 | 1.1 | – | 0.899 | 1.03 | 1.1 | 0.706 | 1.13 | 0.621 | 0.677
LCLC-103H | 1.02 | 0.927 | 0.928 | 0.841 | 1.11 | 1.09 | 0.981 | 0.783 | 0.705 | 0.775 | 0.99 | 0.977 | 1.05 | 0.929 | 1.07
LK-2 | 0.989 | 1.01 | 0.832 | 0.718 | 0.912 | 1.23 | 1.19 | 0.774 | 0.686 | 0.843 | 0.881 | 0.686 | 1.03 | 0.647 | 0.534
LOU-NH91 | 0.894 | 0.954 | 0.963 | 0.839 | 1.01 | 1.08 | 0.854 | 0.664 | 0.454 | 0.523 | 0.914 | 0.738 | 0.981 | 0.912 | 1.21
LU99A | 1.14 | 0.904 | 0.902 | 0.821 | 0.92 | 1.02 | 0.694 | 0.67 | 0.536 | 0.504 | 0.997 | 0.783 | 0.922 | 0.864 | 0.857
LXF-289 | 1.1 | 0.944 | 0.953 | 1.05 | 0.99 | 1.07 | 1.12 | 0.965 | 0.858 | 0.762 | 0.997 | 1.1 | 0.999 | 1.06 | 1.13
NCI-H23 | 0.852 | 0.918 | 0.812 | 0.742 | 0.954 | 1.21 | 1 | 0.567 | 0.674 | 0.589 | 1 | – | 0.907 | 0.819 | 0.907
NCI-H322M | 1.05 | 0.95 | 0.935 | 0.729 | 1.01 | 1.22 | 1.17 | 0.882 | 0.656 | 0.72 | 0.99 | 0.867 | 0.967 | 1.19 | 0.944
NCI-H358 | 1.06 | 0.866 | 0.858 | 0.806 | 0.915 | 0.934 | 0.919 | 0.577 | 0.829 | 0.619 | 0.888 | 0.901 | 0.998 | 0.9 | 0.714
NCI-H441 | 1.09 | 0.926 | 0.896 | 0.877 | 1.09 | 1.26 | 1.12 | 0.541 | 0.807 | 0.727 | 1.11 | 1.01 | 1.1 | 0.886 | 0.993
